The results in this text go back to publication PMC11094793, “Discovery of LLC0424 as a Potent and Selective in Vivo NSD2 PROTAC Degrader” (Journal of Medicinal Chemistry, 2024).

Where two headings read alike, the source gives them in different places.

Experiment [1] concerns the target T1, NSD2 (Homo sapiens, UniProt O96028).
T1 sequence (O96028 1-1365): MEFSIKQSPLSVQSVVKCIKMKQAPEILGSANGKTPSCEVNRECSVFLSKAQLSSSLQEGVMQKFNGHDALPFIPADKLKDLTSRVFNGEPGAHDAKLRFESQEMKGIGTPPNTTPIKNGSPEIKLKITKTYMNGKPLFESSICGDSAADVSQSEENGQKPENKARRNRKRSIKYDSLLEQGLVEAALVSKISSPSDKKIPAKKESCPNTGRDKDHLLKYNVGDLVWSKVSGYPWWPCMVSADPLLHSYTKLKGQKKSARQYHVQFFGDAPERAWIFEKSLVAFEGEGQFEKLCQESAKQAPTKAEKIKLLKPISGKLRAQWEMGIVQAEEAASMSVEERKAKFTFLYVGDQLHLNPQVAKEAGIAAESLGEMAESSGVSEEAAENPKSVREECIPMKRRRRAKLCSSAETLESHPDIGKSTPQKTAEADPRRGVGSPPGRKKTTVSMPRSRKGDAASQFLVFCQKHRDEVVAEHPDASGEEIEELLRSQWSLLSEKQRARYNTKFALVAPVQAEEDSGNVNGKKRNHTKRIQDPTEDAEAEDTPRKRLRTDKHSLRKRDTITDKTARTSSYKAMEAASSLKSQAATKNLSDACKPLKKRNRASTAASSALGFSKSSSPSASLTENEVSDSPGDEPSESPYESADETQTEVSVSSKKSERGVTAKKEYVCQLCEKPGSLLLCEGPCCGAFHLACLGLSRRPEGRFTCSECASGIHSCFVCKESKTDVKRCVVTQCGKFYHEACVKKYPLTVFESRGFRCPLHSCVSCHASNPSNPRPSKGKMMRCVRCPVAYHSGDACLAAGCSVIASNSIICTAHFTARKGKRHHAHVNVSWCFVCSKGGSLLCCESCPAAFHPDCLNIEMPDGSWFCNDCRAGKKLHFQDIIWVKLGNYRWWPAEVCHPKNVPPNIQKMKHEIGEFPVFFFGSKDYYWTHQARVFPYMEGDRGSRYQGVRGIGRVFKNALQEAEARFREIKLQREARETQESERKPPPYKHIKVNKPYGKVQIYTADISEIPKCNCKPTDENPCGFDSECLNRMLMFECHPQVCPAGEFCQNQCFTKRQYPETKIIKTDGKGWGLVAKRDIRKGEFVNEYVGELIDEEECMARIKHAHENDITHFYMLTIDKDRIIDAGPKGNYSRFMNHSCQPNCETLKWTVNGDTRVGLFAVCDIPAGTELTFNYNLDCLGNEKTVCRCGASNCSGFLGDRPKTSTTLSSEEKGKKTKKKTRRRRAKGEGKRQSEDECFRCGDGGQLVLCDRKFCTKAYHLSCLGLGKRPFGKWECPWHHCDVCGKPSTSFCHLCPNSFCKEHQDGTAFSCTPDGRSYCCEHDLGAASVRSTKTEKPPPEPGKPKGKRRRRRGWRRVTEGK
The experiment can be described thus: Compound screening: NSD2 degradation by immunoblotting in VCaP cells. Conditions: VCaP, 24 h. (In general: In western blotting, separated proteins are transferred to a membrane and probed.)
Protocol: After treatment, the cultured cells were collected and rinsed with phosphate-buffered saline (PBS) in room temperature. The cells were treated with RIPA buffers (ThermoFisher Scientific) supplemented with Halt Protease and Phosphatase Inhibitor Cocktail (ThermoFisher Scientific). After sonication and centrifugation, the total amount of protein in the cell lysates was measured by Pierce Bovine Serum Albumin Standard Pre-Diluted Set (ThermoFisher Scientific). […] After incubated with HRP-conjugated secondary antibodies, the membranes were developed with ECL Prime Western Blotting Detection Reagent (cytiva) and imaged on Odyssey Fc Imager (LiCOR Biosciences).
Western blot was then performed as previously described to detect NSD2 degradation.

Experiment [2] relates to H3K36me2. In words: H3K36me2 level by immunoblotting. It is filed as cell-based, human. As to conditions: 2 μM. How it is done: NSD2 is the primary methyltransferase that transfers dimethyl to H3K36 in ALL with NSD2 gain-of-function mutation. Therefore, the effects of LLC0424 on H3K36me2 was evaluated in SEM and RPMI-8402 cells. […] Meanwhile, LLC0424 treatment also led to downregulation of H3K36Me2 in RPMI-8402 cells within 24 h (Figure 6B). […] We also conducted a colony formation assay to evaluate the effect of LLC0424 on the stem cell-like property of the leukemia cells. […] As LLC0424 leads to strong degradation of both NSD2-L and NSD2-S, the phenotypic changes upon LLC0424 treatment result from complete inactivation of NSD2 activity, including adaptor-like function of NSD2-S and SET-domain dependent enzymatic function of NSD2-L. The specific contributions of NSD2 isoforms warrant future investigation. To characterize the genes affected by LLC0424 treatment, we performed global transcriptome analysis of SEM cells treated by DMSO, LLC0424, or LLC0424N. LLC0424 treatment led to significant changes in the transcriptome of SEM cells with over 326 differentially expressed genes. […]
After treatment, the cultured cells were collected and rinsed with phosphate-buffered saline (PBS) in room temperature. […] After sonication and centrifugation, the total amount of protein in the cell lysates was measured by Pierce Bovine Serum Albumin Standard Pre-Diluted Set (ThermoFisher Scientific). […]

For experiment [3], the target named is T2, GSPT1 (Homo sapiens, UniProt P15170).
T2 construct: endogenous in cells; host or cells: RPMI-8402, SEM, VCaP
T2 sequence (P15170 whole entry): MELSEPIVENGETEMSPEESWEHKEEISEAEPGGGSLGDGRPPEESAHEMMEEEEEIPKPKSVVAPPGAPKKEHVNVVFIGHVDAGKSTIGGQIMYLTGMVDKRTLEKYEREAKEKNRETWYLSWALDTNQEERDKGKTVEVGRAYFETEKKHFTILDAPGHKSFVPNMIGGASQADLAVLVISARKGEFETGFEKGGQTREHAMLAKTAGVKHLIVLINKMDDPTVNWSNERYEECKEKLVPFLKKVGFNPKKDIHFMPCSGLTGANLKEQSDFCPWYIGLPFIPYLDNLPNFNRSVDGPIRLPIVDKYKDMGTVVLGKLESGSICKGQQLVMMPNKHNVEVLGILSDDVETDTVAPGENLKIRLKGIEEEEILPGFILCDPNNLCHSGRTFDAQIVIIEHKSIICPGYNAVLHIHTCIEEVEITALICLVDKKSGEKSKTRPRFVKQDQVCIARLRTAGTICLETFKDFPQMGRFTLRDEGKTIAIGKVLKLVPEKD
The experiment can be described thus: GSPT1 level by proteomics and immunoblotting. It is filed as cell-based. As to conditions: 2 μM. Here is the method:
We conducted a global proteomic assay using tandem mass tags (TMT) labeled mass-spectrometry to unbiasedly quantify the protein change upon LLC0424 treatment in VCaP and RPMI-8402 cells. […] We further used SEM cell line to cross-validate the selectivity of LLC0424 for NSD2 over NSD1 and NSD3 as well as CRBN neo-substrates IKZF1, IKZF3, GSPT1, and CK-1α using immunoblotting. […] When we increased the treatment time of LLC0424 in SEM cells, we observed mild decrease of GSPT1 from 12 h (SI, Figure S3F).
NSD2 is the primary methyltransferase that transfers dimethyl to H3K36 in ALL with NSD2 gain-of-function mutation. Therefore, the effects of LLC0424 on H3K36me2 was evaluated in SEM and RPMI-8402 cells. […] Meanwhile, LLC0424 treatment also led to downregulation of H3K36Me2 in RPMI-8402 cells within 24 h (Figure 6B). […] We also conducted a colony formation assay to evaluate the effect of LLC0424 on the stem cell-like property of the leukemia cells. […] As LLC0424 leads to strong degradation of both NSD2-L and NSD2-S, the phenotypic changes upon LLC0424 treatment result from complete inactivation of NSD2 activity, including adaptor-like function of NSD2-S and SET-domain dependent enzymatic function of NSD2-L. The specific contributions of NSD2 isoforms warrant future investigation. To characterize the genes affected by LLC0424 treatment, we performed global transcriptome analysis of SEM cells treated by DMSO, LLC0424, or LLC0424N. LLC0424 treatment led to significant changes in the transcriptome of SEM cells with over 326 differentially expressed genes. […] We further explored the contribution of NSD2 loss to the phenotype we observed in SEM cells. […] Still, whether and how LLC0424’s modest effect on GSPT1 contributes to the cytotoxic effects remains to be further explored. We also designed and synthesized the negative control LLC0877 bearing the warhead that is devoid of NSD2 binding (SI, Figure S5A).
After treatment, the cultured cells were collected and rinsed with phosphate-buffered saline (PBS) in room temperature. The cells were treated with RIPA buffers (ThermoFisher Scientific) supplemented with Halt Protease and Phosphatase Inhibitor Cocktail (ThermoFisher Scientific). After sonication and centrifugation, the total amount of protein in the cell lysates was measured by Pierce Bovine Serum Albumin Standard Pre-Diluted Set (ThermoFisher Scientific). After mixed with LDS-sample buffer (Invitrogen) supplemented with Sample Reducing Agent (Invitrogen) and heated in 70 °C for 10 min, equal amount of protein was loaded into NuPAGE 4–12%, Bis-Tris Protein Gel (ThermoFisher Scientific) or NuPAGE 3–8%, Tris-Acetate Protein Gel (ThermoFisher Scientific), and blotted with primary antibodies. […]

Take `O=C1CCC(N2C(=O)c3ccc(N4CCC(NC(=O)c5ccc(NC(=O)c6ccc(CN(C(=O)c7ccc8c(c7)OCC(=O)N8)C7CC7)cc6)cc5)CC4)cc3C2=O)C(=O)N1` (stereo not shown) [compound 10l, N-Cyclopropyl-N-(4-((4-((1-(2-(2,6-dioxopiperidin-3-yl)-1,3-dioxoisoindolin-5-yl)piperidin-4-yl)carbamoyl)phenyl)carbamoyl)benzyl)-3-oxo-3,4-dihydro-2H-benzo[b][1,4]oxazine-7-carboxamide]: the Dmax at 2 µM in experiment [1] (read-out: 2.0 μM Degradation % (VCaP)) and in experiment [1] (read-out: % Degradation) was 95% each time. In addition, the H3K36Me2 level result in experiment [2] (RPMI-8402 cells, within 24 h) is “downregulation”; in experiment [2] (SEM cells, as long as 8 days), “persistent downregulation”. Besides, the GSPT1 level entry in experiment [3] (RPMI-8402 cells, global proteomics and immunoblotting) is listed as “significant decrease”. For the same compound, the “GSPT1 level on longer treatment” value in experiment [3] (SEM cells, from 12 h) is on record as “mild decrease”. For the same compound, the GSPT1 degradation entry in experiment [3] (SEM or VCaP cells, as long as 8 h) is “did not induce GSPT1 degradation”.
